Patent US20110038885A1, “CHEMOKINE ANALOGS” (priority 2007, published 2011)
Numbered stars: 1 amine (or outer) side, 2 acyl side, 3 side chain; on linkers, the order of the positions; unused ones are H or OH. Bridge positions count the residues as written; N and C are the ends. Square brackets hold non-standard residues; d marks the D form. Side chains are listed from the residue outwards. Peptide text beside a SMILES is read from it. * marks the point of attachment. γGlu = O=C(O)[C@H](CCC(=O)[*:2])N[*:1]; Diglycolyl = O=C(COCC(=O)[*:2])[*:1]; 2Naphthoyl = O=C(c1ccc2ccccc2c1)*; X3 = O=C(/C=C/c1ccc(Cl)cc1)*; X4 = O=C(c1cc2ccccc2[nH]1)*; Decanoyl = CCCCCCCCCC(=O)*; Isobutyryl = CC(C)C(=O)*; Orn = NCCC[C@H](N)C(=O)O; Dab = NCC[C@H](N)C(=O)O; Dap = NC[C@H](N)C(=O)O; Aoc = NCCCCCCCC(=O)O; Bz = O=C(c1ccccc1)*; Ava = NCCCCC(=O)O; βAla = NCCC(=O)O

System: MCP-1
Assay: In vitro chemotaxis (trans-well migration) v MCP-1
Format: cell-based, human
Method in brief: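 Human THP-1 monocytes (10^4-10^6) with agent at varying concentrations in upper trans-well chamber; IL-8 or MCP-1 in lower chamber at a migration-inducing concentration, 37° C for e.g. 4 hours. Migrated cells quantified by MTT (595 nm) against a THP-1 standard curve; cytotoxicity and non-chemokine chemoattractant controls run.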

SMILES	EC50 [nM]
CC[C@H](C)[C@@H]1NC(=O)[C@H](Cc2c[nH]c3ccccc23)NC(=O)[C@H](CCCCN)NC(=O)[C@@H](NC(=O)C(C)C)CCC(=O)NC[C@@H](C(N)=O)NC(=O)[C@H](CCC(N)=O)NC1=O [Example 100, Isobutyryl-c(Glu-Lys-Trp-Ile-Gln-Dap)-NH2] (Isobutyryl-EKWIQ[Dap]-NH2; lactam 1-6)	10
CC[C@@H](C)[C@H]1NC(=O)[C@@H](CCC(N)=O)NC(=O)[C@H](NC(C)=O)CSSC[C@H](C(N)=O)NC(=O)[C@@H](CCCCN)NC(=O)[C@@H](Cc2c[nH]c3ccccc23)NC1=O [Example 190, Ac-c(D-Cys-D-Gln-D-Ile-D-Trp-D-Lys-D-Cys)-NH2] (Ac-[dC][dQ][dI][dW][dK][dC]-NH2; disulfide 1-6)	30
CC[C@H](C)[C@@H]1NC(=O)[C@H](Cc2c[nH]c3ccccc23)NC(=O)[C@H](CCCCN)NC(=O)[C@@H](NC(=O)C(C)C)CCCNC(=O)CC[C@@H](C(N)=O)NC(=O)[C@H](CCC(N)=O)NC1=O [Example 108, Isobutyryl-c(Orn-Lys-Trp-Ile-Gln-Glu)-NH2] (Isobutyryl-[Orn]KWIQE-NH2; lactam 1-6)	8
CC[C@H](C)[C@@H]1NC(=O)[C@H](Cc2c[nH]c3ccccc23)NC(=O)[C@H](CCCCN)NC(=O)[C@@H](NC(C)=O)CCNC(=O)C[C@@H](C(N)=O)NC(=O)[C@H](CCC(N)=O)NC1=O [Example 118, Ac-c(Dab-Lys-Trp-Ile-Gln-Asp)-NH2] (Ac-[Dab]KWIQD-NH2; lactam 1-6)	8
CC(C)(C)OC(=O)N1Cc2ccccc2C[C@H]1C(=O)NCCC(=O)NC1CCC(=O)NC1=O (stereo partly drawn) [Example 174, BOC-Tic-βAla-α-aminoglutaramide]	200
CC[C@@H](C)[C@H]1NC(=O)[C@@H](CCC(N)=O)NC(=O)[C@H](NC(=O)C(C)C)CSSC[C@H](C(N)=O)NC(=O)[C@@H](CCCCN)NC(=O)[C@@H](Cc2c[nH]c3ccccc23)NC1=O [Example 193, Isobutyryl-c(D-Cys-D-Gln-D-Ile-D-Trp-D-Lys-D-Cys)-NH2] (Isobutyryl-[dC][dQ][dI][dW][dK][dC]-NH2; disulfide 1-6)	25
CC[C@H](C)[C@@H]1NC(=O)[C@H](Cc2c[nH]c3ccccc23)NC(=O)[C@H](CCCCN)NC(=O)[C@@H](NC(C)=O)CCCNC(=O)CC[C@@H](C(N)=O)NC(=O)[C@H](CCC(N)=O)NC1=O [Example 123, Ac-c(Orn-Lys-Trp-Ile-Gln-Glu)-NH2] (Ac-[Orn]KWIQE-NH2; lactam 1-6)	7
CC[C@H](C)[C@@H]1NC(=O)[C@H](Cc2c[nH]c3ccccc23)NC(=O)[C@H](CCCCN)NC(=O)CCCCCCCNC(=O)CC[C@@H](C(N)=O)NC(=O)[C@H](CCC(N)=O)NC1=O [Example 96, c(Aoc-Lys-Trp-Ile-Gln-Glu)-NH2] ([Aoc]KWIQE-NH2; lactam N-6)	4
CC[C@H](C)[C@@H]1NC(=O)[C@H](Cc2c[nH]c3ccccc23)NC(=O)[C@H](CCCCN)NC(=O)CCCCNC(=O)C[C@@H](C(N)=O)NC(=O)[C@H](CCC(N)=O)NC1=O [Example 90, c(Apn-Lys-Trp-Ile-Gln-Asp)-NH2] ([Ava]KWIQD-NH2; lactam N-6)	7
CC[C@H](C)[C@@H]1NC(=O)[C@H](Cc2c[nH]c3ccccc23)NC(=O)[C@H](CCCCN)NC(=O)[C@@H](NC(=O)C(C)C)CNC(=O)CC[C@@H](C(N)=O)NC(=O)[C@H](CCC(N)=O)NC1=O [Example 7, Isobutyryl-c(Dap-Lys-Trp-Ile-Gln-Glu)-NH2] (Isobutyryl-[Dap]KWIQE-NH2; lactam 1-6)	5
CC[C@H](C)[C@@H]1NC(=O)[C@H](Cc2c[nH]c3ccccc23)NC(=O)[C@H](CCCCN)NC(=O)[C@@H](NC(=O)c2ccccc2)CSSC[C@@H](C(N)=O)NC(=O)[C@H](CCC(N)=O)NC1=O [Example 57, Benzoyl-c(Cys-Lys-Trp-Ile-Gln-Cys)-NH2] (Bz-CKWIQC-NH2; disulfide 1-6)	15
CCCCCCCCCC(=O)N[C@@H](CCC(=O)NCCCC[C@H](N)C(=O)N[C@H]1CSSC[C@@H](C(N)=O)NC(=O)[C@H](CCC(N)=O)NC(=O)[C@H]([C@@H](C)CC)NC(=O)[C@H](Cc2c[nH]c3ccccc23)NC(=O)[C@H](CCCCN)NC(=O)[C@H](CCC(N)=O)NC(=O)[C@H](CCCCN)NC(=O)[C@@H]2CCCN2C(=O)[C@H](CC(=O)O)NC(=O)[C@H](CC(C)C)NC1=O)C(=O)O [Example 173, Lys{Nε-[γ-Glu-(Nα-decanoyl)]}-c(Cys-Leu-Asp-Pro-Lys-Gln-Lys-Trp-Ile-Gln-Cys)-NH2] (H-K([γGlu-Decanoyl])CLDPKQKWIQC-NH2; disulfide 2-12)	> 1000
CC[C@H](C)[C@@H]1NC(=O)[C@H](Cc2c[nH]c3ccccc23)NC(=O)[C@H](CCCCN)NC(=O)COCC(=O)NCC[C@@H](C(N)=O)NC(=O)[C@H](CCC(N)=O)NC1=O [Example 131, c(Diglycolyl-Lys-Trp-Ile-Gln-Dab)-NH2] (KWIQ[Dab]-NH2; linker N-5 via Diglycolyl)	30

Now from value to compound:

EC50 [nM]	SMILES
10	CC[C@H](C)[C@@H]1NC(=O)[C@H](Cc2c[nH]c3ccccc23)NC(=O)[C@H](CCCCN)NC(=O)[C@@H](NC(=O)/C=C/c2ccc(Cl)cc2)CSSC[C@@H](C(N)=O)NC(=O)[C@H](CCC(N)=O)NC1=O [Example 73, 4-Chlorocinnamoyl-c(Cys-Lys-Trp-Ile-Gln-Cys)-NH2] (X3-CKWIQC-NH2; disulfide 1-6)
5	CC[C@H](C)[C@@H]1NC(=O)[C@H](Cc2c[nH]c3ccccc23)NC(=O)[C@H](CCCCN)NC(=O)[C@@H](NC(=O)c2cc3ccccc3[nH]2)CSSC[C@@H](C(N)=O)NC(=O)[C@H](CCC(N)=O)NC1=O [Example 70, 2-Indolecarboxyl-c(Cys-Lys-Trp-Ile-Gln-Cys)-NH2] (X4-CKWIQC-NH2; disulfide 1-6)
25	NCCCC[C@@H]1NC(=O)CCNC(=O)C[C@@H](C(N)=O)NC(=O)[C@H](CCC(N)=O)NC(=O)[C@H](Cc2c[nH]c3ccccc23)NC1=O [Example 59, c((βA1a-Lys-Trp-Gln-Asp)-NH2] ([βAla]KWQD-NH2; lactam N-5)
25	CC[C@H](C)[C@@H]1NC(=O)[C@H](Cc2c[nH]c3ccccc23)NC(=O)[C@H](CCCCN)NC(=O)[C@@H](NC(C)=O)CSSC[C@@H](C(N)=O)NC(=O)[C@@H](CCC(N)=O)NC1=O [Example 75, Ac-c(Cys-Lys-Trp-Ile-D-Gln-Cys)-NH2] (Ac-CKWI[dQ]C-NH2; disulfide 1-6)
8	CC[C@H](C)[C@@H]1NC(=O)[C@H](Cc2c[nH]c3ccccc23)NC(=O)[C@H](CCCCN)NC(=O)[C@@H](NC(C)=O)CCC(=O)NCCCC[C@@H](C(N)=O)NC(=O)[C@H](CCC(N)=O)NC1=O [Example 116, Ac-c(Glu-Lys-Trp-Ile-Gln-Lys)-NH2] (Ac-EKWIQK-NH2; lactam 1-6)
7.5	CC[C@H](C)[C@@H]1NC(=O)[C@@H](N)CSSC[C@@H](C(N)=O)NC(=O)[C@H](CCC(N)=O)NC1=O [Example 86, c(Cys-Ile-Gln-Cys)-NH2] (H-CIQC-NH2; disulfide 1-4)
15	CC[C@H](C)[C@@H]1NC(=O)[C@H](Cc2c[nH]c3ccccc23)NC(=O)[C@H](CCCCN)NC(=O)[C@@H](NC(=O)c2ccc3ccccc3c2)CSSC[C@@H](C(N)=O)NC(=O)[C@H](CCC(N)=O)NC1=O [Example 69, 2-Naphthoyl-c(Cys-Lys-Trp-Ile-Gln-Cys)-NH2] (2Naphthoyl-CKWIQC-NH2; disulfide 1-6)
